Measured values taken from article PMC5538589, “Discovery of Novel Allopurinol Derivatives with Anticancer Activity and Attenuated Xanthine Oxidase Inhibition” (Molecules, 2016).
Where two headings read alike, the source gives them in different places.

Experiments:
BEL-7402 [1] = assay: MTT cell viability assay, human hepatoma carcinoma BEL-7402 cells; type: cell-based; details: 24 h treatment, concentration inhibiting cancer cell replication by 50%, tested up to 100 μM
SMMC-7221 [2] = assay: MTT cell viability assay, human hepatoma carcinoma SMMC-7221 cells; type: cell-based; details: read-out: IC50 SMMC-7221
MDA-MB-231 cells = assay: Cell survival/growth assay (Coulter cell count), MDA-MB-231 cells; type: cell-based; details: 5 days, treated/vehicle cell number ratio; for viability at 1 µM / viability at 10 µM: Homo sapiens, 120 h; for viability at 1 µM: read-out: Survival Rate (%) 1 μM; for viability at 10 µM: read-out: Survival Rate (%) 10 μM;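 as to all read-outs here: cells grown in DMEM with 5% FBS, vehicle control was an equal volume of DMSO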
MCF-10A cells [3] = assay: Cytotoxicity towards normal MCF-10A mammary epithelial cells (Cell Titer-Glo); details: human, MCF-10A normal mammary epithelial cells
[4] = test system: normal cells versus tumor types; design: method as in PMID 12213470, PMID 15217612; details: normal cells more resistant to anti-cancer effects; cited from earlier work
xanthine oxidase (XOD) = xanthine oxidase (XOD) (Bos taurus, UniProt P80457); details: test concentrations 5, 10, 15, 25 μM; allopurinol positive control
xanthine oxidase (XOD), sequence (P80457 2-1332 limits assumed): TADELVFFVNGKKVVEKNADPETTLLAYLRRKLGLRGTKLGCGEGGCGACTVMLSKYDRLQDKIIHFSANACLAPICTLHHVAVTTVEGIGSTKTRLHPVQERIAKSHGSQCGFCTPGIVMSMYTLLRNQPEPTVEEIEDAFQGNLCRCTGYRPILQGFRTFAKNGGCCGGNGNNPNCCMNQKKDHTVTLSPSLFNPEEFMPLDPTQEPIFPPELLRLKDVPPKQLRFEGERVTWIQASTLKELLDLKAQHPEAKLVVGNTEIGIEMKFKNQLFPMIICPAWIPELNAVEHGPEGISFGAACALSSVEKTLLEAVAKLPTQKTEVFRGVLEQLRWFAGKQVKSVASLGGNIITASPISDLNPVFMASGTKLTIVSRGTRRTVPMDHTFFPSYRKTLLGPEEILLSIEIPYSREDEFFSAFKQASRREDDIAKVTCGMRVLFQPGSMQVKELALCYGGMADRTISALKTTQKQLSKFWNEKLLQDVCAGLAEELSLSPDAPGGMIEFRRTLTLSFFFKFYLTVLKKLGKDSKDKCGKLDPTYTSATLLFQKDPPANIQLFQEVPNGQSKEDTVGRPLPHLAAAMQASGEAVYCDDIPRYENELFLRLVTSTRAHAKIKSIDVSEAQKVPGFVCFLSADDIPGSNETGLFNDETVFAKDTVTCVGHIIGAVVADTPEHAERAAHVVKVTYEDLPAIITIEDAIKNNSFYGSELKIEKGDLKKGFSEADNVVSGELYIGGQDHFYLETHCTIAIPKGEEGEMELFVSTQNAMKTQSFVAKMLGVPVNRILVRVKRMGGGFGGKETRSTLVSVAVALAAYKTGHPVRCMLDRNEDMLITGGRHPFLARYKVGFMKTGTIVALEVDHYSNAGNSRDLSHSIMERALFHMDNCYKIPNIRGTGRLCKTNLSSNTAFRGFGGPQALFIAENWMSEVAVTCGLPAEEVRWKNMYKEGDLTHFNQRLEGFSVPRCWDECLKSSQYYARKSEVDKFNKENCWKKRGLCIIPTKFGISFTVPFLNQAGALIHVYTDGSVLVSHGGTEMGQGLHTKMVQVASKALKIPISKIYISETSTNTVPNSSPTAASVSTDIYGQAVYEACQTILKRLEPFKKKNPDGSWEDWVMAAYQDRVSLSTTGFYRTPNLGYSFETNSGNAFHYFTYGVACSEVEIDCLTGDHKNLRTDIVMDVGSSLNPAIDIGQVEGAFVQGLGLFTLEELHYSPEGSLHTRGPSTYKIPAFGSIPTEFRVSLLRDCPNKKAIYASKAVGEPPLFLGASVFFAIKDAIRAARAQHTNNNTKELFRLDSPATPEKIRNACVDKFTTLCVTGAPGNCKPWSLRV

SMMC-7221 [5] = test system: SMMC-7221; design: method as in PMID 23851116; details: value from earlier study; cited from earlier work
BEL-7402 [6] = test system: BEL-7402; design: method as in PMID 23851116; details: value from earlier study; cited from earlier work
MCF-10A cells [7] = assay: in vitro; details: human
[8] = SMMC-7221, MTT, 24 h treatment, concentration inhibiting cancer cell replication by 50%, tested up to 100 μM

IC50 (BEL-7402 [1]) [µM]	IC50 (SMMC-7221 [2]; [8]) [µM]	melting point [°C]	SMILES	viability at 1 µM (MDA-MB-231 cells; MDA-MB-231, 1 μM) [%]	viability at 10 µM (MDA-MB-231 cells; MDA-MB-231, 10 μM) [%]	other results
> 100	> 100	194 to 195	CCn1ncc2c(NNS(=O)(=O)c3ccc([N+](=O)[O-])cc3)ncnc21 [Compound 5b, N′-(1-Ethyl-1H-pyrazolo[3,4-d]pyrimidin-4-yl)-4-nitrobenzenesulfonohydrazide]	92.9 ± 1.5	68 ± 2.4	
> 100	> 100	62 to 63	Clc1ncnc2c1cnn2Cc1ccccc1 [Compound 6, 1-Benzyl-4-chloro-1H-pyrazolo[3,4-d]pyrimidine]	77.6 ± 9.1	75.7 ± 1.5	
> 100	> 100	194 to 195	CCn1ncc2c(NNS(=O)(=O)c3ccc(Br)cc3)ncnc21 [Compound 5d, 4-Bromo-N′-(1-ethyl-1H-pyrazolo[3,4-d]pyrimidin-4-yl)benzenesulfonohydrazide]	80.5 ± 2	70.9 ± 1	
66.61 ± 0.62	> 100		O=S(=O)(NCCNc1ncnc2c1cnn2Cc1ccccc1)c1ccccc1 [Compound 8a, N-(2-((1-Benzyl-1H-pyrazolo[3,4-d]pyrimidin-4-yl)amino)ethyl)benzenesulfonamide]		58.4 ± 2.4	
			C#CCCCn1c(Cc2cc(OC)c(OC)c(OC)c2Cl)nc2c(N)nc(F)nc21 [PU24FCl]			Resistance of normal cells relative to tumor cells [4]: 10- to 50 fold
> 100	> 100	76 to 77	CCn1ncc2c(Cl)ncnc21 [Compound 3, 4-Chloro-1-ethyl-1H-pyrazolo[3,4-d]pyrimidine]	86.2 ± 8.6	67 ± 4.8	
			Oc1ncnc2[nH]ncc12 [allopurinol, 4-hydroxyl-1H-pyrazolo[3,4-d]pyrimidine]	84.3 ± 7.7	51.7 ± 6.7	XOD inhibitory activity (in words) (xanthine oxidase (XOD)): strong inhibitor of XOD
> 100	> 100		O=S(=O)(NCCNc1ncnc2c1cnn2Cc1ccccc1)c1ccc(Br)cc1 [Compound 8c, N-(2-((1-benzyl-1H-pyrazolo[3,4-d]pyrimidin-4-yl)amino)ethyl)-4-bromobenzenesulfonamide]	105 ± 8.6	78.5 ± 3.9	
> 100	81.46 ± 0.78		O=[N+]([O-])c1ccc(S(=O)(=O)NCCNc2ncnc3c2cnn3Cc2ccccc2)cc1 [Compound 8b, N-(2-((1-Benzyl-1H-pyrazolo[3,4-d]pyrimidin-4-yl)amino)ethyl)-4-nitrobenzenesulfonamide]	75.7 ± 2.4	71.8 ± 8.5	
			CCOC(=O)Cn1ncc2c(Nc3ccc(NC(=O)CCl)cc3)ncnc21 [Compound 1]	40.2 ± 3.9	1 ± 0.6	IC50 (SMMC-7221 [5]): 9.03 µM; IC50 at 72 h (MCF-10A cells [3]): 5.59 ± 0.27 µM; IC50 (BEL-7402 [6]): 18.7 µM
> 100	> 100	186 to 187	CCn1ncc2c(NNS(=O)(=O)c3ccc(C)cc3)ncnc21 [Compound 5a, N′-(1-Ethyl-1H-pyrazolo[3,4-d]pyrimidin-4-yl)-4-methylbenzenesulfonohydrazide]	89.1 ± 1.5	72.8 ± 3.9	
> 100	> 100	144 to 146	CCn1ncc2c(N(NC(=O)c3ccccc3)C(=O)c3ccccc3)ncnc21 [Compound 5f, N′-Benzoyl-N′-(1-ethyl-1H-pyrazolo[3,4-d]pyrimidin-4-yl)benzohydrazide]	102 ± 11	88.1 ± 1	
> 100	> 100	194 to 195	CCn1ncc2c(NNS(=O)(=O)c3ccccc3)ncnc21 [Compound 5c, N′-(1-Ethyl-1H-pyrazolo[3,4-d]pyrimidin-4-yl)benzenesulfonohydrazide]	75.7 ± 11	74.7 ± 0.1	
> 100	> 100		NCCNc1ncnc2c1cnn2Cc1ccccc1 [Compound 7, N1-(1-Benzyl-1H/-pyrazolo[3,4-d]pyrimidin-4-yl)ethane-1,2-diamine]	81.4 ± 7.2	57.5 ± 1	

SMILES	IC50 (BEL-7402 [1]) [µM]	IC50 (SMMC-7221 [2]; [8]) [µM]	melting point [°C]	viability at 1 µM (MDA-MB-231 cells; MDA-MB-231, 1 μM) [%]	viability at 10 µM (MDA-MB-231 cells; MDA-MB-231, 10 μM) [%]	other results
CCn1ncc2c(NNC(=O)CCl)ncnc21 [Compound 5g, 2-Chloro-N′-(1-ethyl-1H-pyrazolo[3,4-d]pyrimidin-4-yl)acetohydrazide]	> 100	> 100	202 to 204	105 ± 4.8	105 ± 2.9	IC50 at 72 h (MCF-10A cells [3]): 23.3 ± 0.71 µM
CCn1ncc2c(NNC(C)=O)ncnc21 [Compound 5e, N′-(1-Ethyl-1H-pyrazolo[3,4-d]pyrimidin-4-yl)acetohydrazide]	> 100	> 100		94.8 ± 0.5	61.3 ± 1	IC50 at 72 h (MCF-10A cells [3]): 20.2 ± 0.81 µM
CCn1ncc2c(NN)ncnc21 [Compound 4, 1-Ethyl-4-hydrazinyl-1H-pyrazolo[3,4-d]pyrimidine]	25.5 ± 0.4			66.1	27.8	IC50 (SMMC-7221 [2]; SMMC-7221, 24 h): 35.2 ± 0.4 µM; IC50 at 72 h (MCF-10A cells [3]): 17.4 ± 0.69 µM; Survival Rate (%) 1 μM (MDA-MB-231 cells; MDA-MB-231, 1 μM): 66.1 ± 0.5%; Survival Rate (%) 10 μM (MDA-MB-231 cells; MDA-MB-231, 10 μM): 27.8 ± 2.4%
C=CCNC1=C2C[C@@H](C)C[C@H](OC)[C@H](O)[C@@H](C)/C=C(\C)[C@H](OC(N)=O)[C@@H](OC)/C=C\C=C(/C)C(=O)NC(=CC1=O)C2=O [Compound 17-AAG, 17-N-allylamino-17-demethoxy geldanamycin, reference compound]	12.4 ± 0.1	9.85 ± 0.08		6.7 ± 0.5	4.8 ± 0.5	IC50 at 72 h (MCF-10A cells [7]): 0.09 ± 0.01 µM
